Test results as given in US20090047224A1, “Cosmetic Process for Preventing or Treating the Signs of Skin Ageing or the Orange-Peel Appearance” (L'OREAL, priority 2003, published 2009).
Read-outs that look alike come from different tables or passages of the source.

Tests used:
[1] = system: bovine serum albumin; assay: Anti-glycation effect: inhibition of glycation of bovine serum albumin by D-ribose, measured by fluorescence; format: biochemical; settings: for IC50: BSA + D-ribose 100 mM, 37° C., four weeks; for anti-glycation activity: compared with aminoguanidine
Method: A solution of bovine serum albumin at 5 or 10 mg/ml dissolved in phosphate-buffered saline is incubated at 37° C. for four weeks in the presence or absence of the test compounds at a concentration of between 20 and 160 μg/ml, and in the presence or absence of D-ribose at 100 mM.
After this incubation, dialysis of each sample is performed for 24 hours against MilliQ water.
The glycation of the BSA is evaluated by measuring the fluorescence of each sample at λex 320/λex 380 nm (which corresponds to the formation of the pentosidine glycation product) and at λex 370/λex 440 nm (which corresponds to AGEs).
The inhibition of glycation corresponds to a decrease in fluorescence compared with the glycated control (treated with sugar). The concentration of compound leading to a 50% inhibition of glycation, or IC50, is determined.
Aminoguanidine is used as positive control and tested at various concentrations of between 20 and 160 μg/ml.

[2] = Release of ammonia on heating; format: physicochemical; settings: in contrast with aminoguanidine
[3] = system: supercoiled circular DNA (plasmid pBR322); assay: Antioxidant effect: DNA-protecting effect under simulated daily UV with ferric ions and riboflavin; format: biochemical; settings: 30 minutes simulated daily UV
Method: The DNA-protecting effect of the compounds according to the invention was evaluated by comparison with vitamin C and N-acetylcysteine, which are two well-known antioxidants.
In this test, supercoiled circular DNA (plasmid pBR322, Roche) is placed in solution in the presence of 10 mM phosphate buffer (pH=7) and ferric ions (FeCl3, Sigma) at a concentration of 1 μM and in the presence of riboflavin (Sigma) at a concentration of 0.5 μM. The iron amplifies, via the Fenton reaction, the photo-oxidative impact on the DNA. Its presence also makes it possible to evaluate the potential chelating effect of the N-hydroxy imides according to the invention.
The samples are exposed for 30 minutes to simulated daily UV (attenuated UVB+total UVA) obtained using the Oriel solar simulator equipped with a suitable optical filter and a dichroic mirror. The corresponding spectrum is illustrated in FIG. 3.
The DNA is then subjected to electrophoresis on 1% agarose gel to separate the supercoiled forms, relaxed due to induction of breaks and linearized. After treatment in a gel with the fluorescent intercalating agent ethidium bromide, these three forms may be quantified by densitometry of the agarose gel under UV.

[4] = fluorescence corresponding to AGEs, read-out: λex 370/λex 440 nm IC50
[5] = fluorescence corresponding to formation of the pentosidine glycation product, read-out: λex 320/λex 380 nm IC50

SMILES | IC50 [1, 4] [µM] | IC50 [1, 5] [µM] | further results
N=C(N)NN [Aminoguanidine, reference compound] | 700 | 200 | –
O=C1CCC(=O)N1O [Compound 1, N-hydroxysuccinimide] | – | – | releasing ammonia on heating [2]: not releasing ammonia on heating; anti-glycation activity [1]: more moderate than aminoguanidine
O=C1C=CC(=O)N1O [Compound 2, N-hydroxymaleimide] | 600 | 800 | –
O=C1CCCC(=O)N1O [Compound 6, N-hydroxy-piperidine-2,6-dione] | – | – | anti-glycation activity [1]: more moderate than aminoguanidine
CC(=O)N[C@@H](CS)C(=O)O [N-Acetylcysteine, reference compound] | – | – | Score (level of DNA protection) ([3]; Concentration 1 mM): ++ (The score (++) means that the active agent reduces the photodegradation of the DNA by at least 50%)
O=C1O[C@H]([C@@H](O)CO)C(O)=C1O [Vitamin C, reference compound] | – | – | Score (level of DNA protection) ([3]; Concentration 1 mM): + (The score (+) means that the active agent reduces the photodegradation of the DNA by at least 20%)

Now from value to compound, other results behind:

IC50 [1, 4] [µM] | IC50 [1, 5] [µM] | SMILES | further results
40 | 30 | O=C1C=C(c2ccccc2)C(=O)N1O [Compound 3, N-hydroxy-2-phenylmaleimide] | Score (level of DNA protection) ([3]; Concentration 0.1 mM): ++ (The score (++) means that the active agent reduces the photodegradation of the DNA by at least 50%)
250 | 200 | O=C1c2ccccc2C(=O)N1O [Compound 4, N-hydroxyphthalimide] | –
45 | 0.8 | O=C1c2cccc3cccc(c23)C(=O)N1O [Compound 5, N,N-(1,8-naphthaloyl)hydroxylamine] | Score (level of DNA protection) ([3]; Concentration 0.01 mM): + (The score (+) means that the active agent reduces the photodegradation of the DNA by at least 20%)
